# Data as given in PubChem BioAssay (NCI).
#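 Values below derive from 48-hour exposures of cells grown in 96-well plates, with endpoints linearly interpolated between the two concentrations bracketing the appropriate inhibition level. Abbreviation: GI50, concentration required for 50% inhibition of growth. TGI marks complete inhibition of growth.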
# Legend:
# Experiment in all cases: inhibition of tumour cell growth, NCI panel, 48 h
# 786-0 renal = tested on: 786-0 renal
# HS 578T breast = tested on: HS 578T breast
# IGROV1 ovarian = tested on: IGROV1 ovarian
# LOX IMVI melanoma = tested on: LOX IMVI melanoma
# NCI/ADR-RES ovarian = tested on: NCI/ADR-RES ovarian
# OVCAR-4 ovarian = tested on: OVCAR-4 ovarian
# SN12C renal = tested on: SN12C renal
# SW-620 colon = tested on: SW-620 colon
# T-47D breast = tested on: T-47D breast
# UO-31 renal = tested on: UO-31 renal
Compound,GI50 (786-0 renal) [µM],TGI (786-0 renal) [µM],GI50 (HS 578T breast) [µM],TGI (HS 578T breast) [µM],GI50 (IGROV1 ovarian) [µM],TGI (IGROV1 ovarian) [µM],GI50 (LOX IMVI melanoma) [µM],TGI (LOX IMVI melanoma) [µM],GI50 (NCI/ADR-RES ovarian) [µM],TGI (NCI/ADR-RES ovarian) [µM],GI50 (OVCAR-4 ovarian) [µM],TGI (OVCAR-4 ovarian) [µM],GI50 (SN12C renal) [µM],TGI (SN12C renal) [µM],GI50 (SW-620 colon) [µM],TGI (SW-620 colon) [µM],GI50 (T-47D breast) [µM],TGI (T-47D breast) [µM],GI50 (UO-31 renal) [µM],TGI (UO-31 renal) [µM]
CCCCCCCC(=O)Nc1nc2[nH]c(CN3CCN(Cc4cccc(I)c4)CC3)c(CN3CCN(Cc4cccc(I)c4)CC3)c2c(=O)[nH]1,0.793,1.5,0.882,1.95,0.836,1.67,0.762,1.44,0.882,1.74,0.841,1.62,0.916,1.75,0.848,1.63,0.993,2.18,0.717,1.41
Cn1cnc(SC2=CC(=O)C=C3S[C@H]4C[C@@]23c2c(c(O)c3c5c2=NCCC=5C=N3)N4)c1CC(N)C(=O)O (some centres undefined),13.6,26.8,39.7,96.1,11.6,23.9,4.64,18.6,23.7,56.7,13.4,26.2,7.26,19.1,–,9.52,20.2,38.3,16.4,30.3
CO[C@H]1/C=C/O[C@@]2(C)Oc3c(C)c(O)c4c(O)c(c(/C=N/N5C(C)CN(Cc6ccc(C#N)cc6)CC5C)c(O)c4c3C2=O)NC(=O)/C(C)=C\C=C\[C@H](C)[C@H](O)[C@@H](C)[C@@H](O)[C@@H](C)[C@H](OC(C)=O)[C@@H]1C (some centres undefined),8.79,16.8,8.83,20.3,7.61,16.4,6.84,13.4,11.7,46,7.49,26.4,6.73,13.6,8.15,17.5,6.71,26.2,3.64,10.5
O=C(Nc1ccc(Cl)cc1)c1cc(NCc2cc(O)ccc2O)ccc1O,6.17,19.6,9.12,55.7,11.2,38.8,4.1,23.1,4.43,62.9,2.9,> 100,7.47,22.6,4.14,22.8,2.05,5.24,1.45,3.21
CCOc1ccc(Nc2ccnc3cc(Cl)ccc23)cc1,41.1,> 100,38.6,> 100,> 100,> 100,41.9,> 100,> 100,> 100,78.3,> 100,> 100,> 100,> 100,> 100,> 100,> 100,> 100,> 100
O=C(N/N=C/c1ccc([N+](=O)[O-])cc1)c1ccccc1Nc1ccnc(C(F)(F)F)c1,32.7,> 100,2.26,49.8,6.25,19.2,19.8,> 100,16.8,58.7,14.2,56.3,26.3,> 100,13.3,88.1,21.6,82.4,16.6,59.6
Oc1cccc2ccc(SSc3ccc4cccc(O)c4n3)nc12,–,40.4,–,> 100,–,60.8,–,33.8,–,65.6,–,34.2,–,37,–,96.4,–,38.6,–,83.9
Cc1ccc(NC(=O)CCc2nnc3s/c(=C\C=C\c4ccccc4)c(=O)n23)cc1,–,> 100,–,> 100,–,> 100,–,> 86.8,–,> 78.6,–,> 56.2,–,> 100,–,> 100,–,> 31.6,–,> 100
CC1(C)N=C(N)N=C(N)N1c1cccc(CCCCc2ccc(Cl)c(S(=O)(=O)F)c2)c1,2.67,16.3,12.6,35.9,0.66,18.8,0.433,16.1,> 100,> 100,11.8,29.6,0.967,16.4,0.455,15.8,13.8,30.9,> 100,> 100
O=C(O)c1nn(-c2ccc(Cl)cc2)c2c1C(=O)c1ccccc1C2=O,–,> 100,–,> 100,–,> 100,–,> 100,–,> 100,–,> 100,–,> 100,–,> 100,–,> 100,–,> 100
